Measured values: BindingDB's records for doi:10.1021/jm500629e (Mcgill University, 2014)

What follows are compounds tested against T1, Farnesyl pyrophosphate synthase (Homo sapiens, UniProt P14324) (assay: Inhibition of FPPS (unknown origin)).
T1 sequence (P14324 whole entry): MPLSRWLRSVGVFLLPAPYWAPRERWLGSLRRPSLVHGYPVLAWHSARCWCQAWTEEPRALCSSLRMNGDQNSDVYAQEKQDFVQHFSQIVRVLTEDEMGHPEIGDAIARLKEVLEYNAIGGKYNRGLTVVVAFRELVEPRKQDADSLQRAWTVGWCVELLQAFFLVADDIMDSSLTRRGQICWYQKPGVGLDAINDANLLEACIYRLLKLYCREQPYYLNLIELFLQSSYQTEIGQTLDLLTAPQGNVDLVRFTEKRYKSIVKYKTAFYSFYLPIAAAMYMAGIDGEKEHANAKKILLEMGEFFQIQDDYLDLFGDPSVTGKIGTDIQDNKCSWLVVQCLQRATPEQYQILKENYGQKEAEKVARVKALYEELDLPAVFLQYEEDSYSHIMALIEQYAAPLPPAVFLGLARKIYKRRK

IC50 [nM] | Structure (SMILES)
4500 | Cc1ccc(-c2cc3c(NCP(=O)(O)O)ncnc3s2)cc1
200 | Cc1ccc(-c2cc3c(NCCP(=O)(O)O)ncnc3s2)cc1
200 | Cc1ccc(-c2cc3c(CCP(=O)(O)O)ncnc3s2)cc1
> 20000 | Cc1ccc(-c2cc3c(NCC(=O)O)ncnc3s2)cc1
3300 | Cc1ccc(-c2cc3c(NCP(=O)(O)O)ncnc3s2)cc1Cl
1200 | Cc1ccc(-c2cc3c(NC(c4ccccc4)P(=O)(O)O)ncnc3s2)cc1Cl (stereo not given)
200 | Cc1ccc(-c2cc3c(NC(P(=O)(O)O)P(=O)(O)O)ncnc3s2)cc1
200 | O=P(O)(O)C(Nc1ncnc2sc(-c3ccc(OC4CC4)cc3)cc12)P(=O)(O)O
200 | O=P(O)(O)C(Cc1cccnc1)P(=O)(O)O [(1-phosphono-2-pyridin-3-yl-ethyl)-phosphonic acid]

Structure (SMILES) | IC50 [nM]
O=P(O)(O)CCc1cccnc1 | 200
